Data: patent US11957687B2 (REGENERON PHARMACEUTICALS, INC., priority 2019, dated 2024)
Where two headings read alike, the source gives them in different places.

Biological target: HSD17B13 (Homo sapiens (Human), UniProt Q7Z5P4)
Test: HSD17B13 enzymatic inhibition assay (150 nM or 50 nM HSD17B13)
Assay type: biochemical
[1] = 150 nM HSD17B13, read-out: Inhibition of 150 nM of HSD17B13 IC50
[2] = 50 nM HSD17B13, read-out: Inhibition of 50 nM of HSD17B13 IC50

Sequence of HSD17B13 (Q7Z5P4 other isoform, or with tags, fused parts or gaps): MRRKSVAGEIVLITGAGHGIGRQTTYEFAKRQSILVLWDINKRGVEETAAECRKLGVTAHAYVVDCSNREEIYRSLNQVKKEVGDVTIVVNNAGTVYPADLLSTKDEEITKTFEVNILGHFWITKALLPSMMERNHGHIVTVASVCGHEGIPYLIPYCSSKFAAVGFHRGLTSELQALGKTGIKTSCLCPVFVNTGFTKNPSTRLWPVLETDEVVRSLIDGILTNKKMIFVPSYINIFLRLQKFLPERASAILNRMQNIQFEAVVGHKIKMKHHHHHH

IC50 [1]	IC50 [2]	SMILES
4700 nM		COc1cccc(C(NC(=O)c2ccc(C(F)(F)F)[nH]c2=O)c2ccccc2)c1 (stereo not shown) [Compound 4, N-((3-methoxyphenyl)(phenyl)methyl)-2-oxo-6-(trifluoromethyl)-1,2-dihydropyridine-3-carboxamide]
	1520 nM	O=C(NC1c2ccccc2C=Cc2ccccc21)c1ccc(C(F)(F)F)[nH]c1=O [Compound 5A, N-(5H-dibenzo[a,d][7]annulen-5-yl)-2-oxo-6-(trifluoromethyl)-1,2-dihydropyridine-3-carboxamide]
4520 nM		O=C(NC(c1ccccc1)c1cccc(Cl)c1)c1ccc(C(F)(F)F)[nH]c1=O (stereo not shown) [Compound 6, N-((3-chlorophenyl)(phenyl)methyl)-2-oxo-6-(trifluoromethyl)-1,2-dihydropyridine-3-carboxamide]
	5150 nM	Nc1ccc(C(NC(=O)c2ccc(C(F)(F)F)[nH]c2=O)c2ccccc2)cc1 (stereo not shown) [Compound 6A, N-((4-aminophenyl)(phenyl)methyl)-2-oxo-6-(trifluoromethyl)-1,2-dihydropyridine-3-carboxamide]
3230 nM	1610 nM	COc1ccccc1C(NC(=O)c1ccc(C(F)(F)F)[nH]c1=O)c1ccccc1 (stereo not shown) [Compound 8, N-((2-methoxyphenyl)(phenyl)methyl)-2-oxo-6-(trifluoromethyl)-1,2-dihydropyridine-3-carboxamide]
	6310 nM	O=C(NC1c2ccc(OC(F)(F)F)cc2-c2cc(OC(F)(F)F)ccc21)c1ccc(C(F)(F)F)[nH]c1=O [Compound 8A, N-(3,6-bis(trifluoromethoxy)-9H-fluoren-9-yl)-2-oxo-6-(trifluoromethyl)-1,2-dihydropyridine-3-carboxamide]
	1200 nM	O=C(NC(c1ccccc1)c1ccc(N2CCCCC2)cc1)c1ccc(C(F)(F)F)[nH]c1=O (stereo not shown) [Compound 9A, 2-oxo-N-(phenyl(4-(piperidin-1-yl)phenyl)methyl)-6-(trifluoromethyl)-1,2-dihydropyridine-3-carboxamide]
	670 nM	O=C(NC(c1ccc(Br)cc1)c1ccc(Br)cc1)c1ccc(C(F)(F)F)[nH]c1=O [Compound 10, N-(bis(4-bromophenyl)methyl)-2-oxo-6-(trifluoromethyl)-1,2-dihydropyridine-3-carboxamide]
	1460 nM	O=C(NC1c2ccccc2Sc2ccccc21)c1ccc(C(F)(F)F)[nH]c1=O [Compound 10A, 2-oxo-N-(9H-thioxanthen-9-yl)-6-(trifluoromethyl)-1,2-dihydropyridine-3-carboxamide]
	1090 nM	O=C(NC(c1ccc(OC(F)(F)F)cc1)c1ccc(OC(F)(F)F)cc1)c1ccc(C(F)(F)F)[nH]c1=O [Compound 11, N-(bis(4-(trifluoromethoxy)phenyl)methyl)-2-oxo-6-(trifluoromethyl)-1,2-dihydropyridine-3-carboxamide]
	1190 nM	O=C(NC1c2ccccc2S(=O)(=O)c2ccccc21)c1ccc(C(F)(F)F)[nH]c1=O [Compound 11A, N-(10,10-dioxido-9H-thioxanthen-9-yl)-2-oxo-6-(trifluoromethyl)-1,2-dihydropyridine-3-carboxamide]
	1310 nM	Cc1ccc(C(NC(=O)c2cnc(C(F)(F)F)[nH]c2=O)c2ccc(C)cc2)cc1 [Compound 13A, N-(di-p-tolylmethyl)-6-oxo-2-(trifluoromethyl)-1,6-dihydropyrimidine-5-carboxamide]
	4280 nM	O=C(NC1c2ccc(Cl)cc2-c2cc(Cl)ccc21)c1ccc(C(F)(F)F)[nH]c1=O [Compound 14A, N-(3,6-dichloro-9H-fluoren-9-yl)-2-oxo-6-(trifluoromethyl)-1,2-dihydropyridine-3-carboxamide]
	3640 nM	O=C(NC(c1ccccc1)c1ccc(O)c(F)c1)c1ccc(C(F)(F)F)[nH]c1=O (stereo not shown) [Compound 16A, N-((3-fluoro-4-hydroxyphenyl)(phenyl)methyl)-2-oxo-6-(trifluoromethyl)-1,2-dihydropyridine-3-carboxamide]
	3100 nM	O=C(NC(c1ccccc1)c1ccccc1C(F)(F)F)c1ccc(C(F)(F)F)[nH]c1=O (stereo not shown) [Compound 17A, 2-oxo-N-(phenyl(2-(trifluoromethyl)phenyl)methyl)-6-(trifluoromethyl)-1,2-dihydropyridine-3-carboxamide]
	2620 nM	Cc1ccc(C(NC(=O)c2cnc(C(F)(F)F)[nH]c2=O)c2ccccc2)cc1C (stereo not shown) [Compound 18A, N-((3,4-dimethylphenyl)(phenyl)methyl)-6-oxo-2-(trifluoromethyl)-1,6-dihydropyrimidine-5-carboxamide]
2110 nM		Cc1cccc(C(NC(=O)c2ccc(C(F)(F)F)[nH]c2=O)c2ccccc2)c1 (stereo not shown) [Compound 20, N-(phenyl(m-tolyl)methyl)-2-oxo-6-(trifluoromethyl)-1,2-dihydropyridine-3-carboxamide]
	1850 nM	CC(NC(=O)c1ccc(C(F)(F)F)[nH]c1=O)(c1ccc(O)cc1)c1ccc(O)cc1 [Compound 21A, N-(1,1-bis(4-hydroxyphenyl)ethyl)-2-oxo-6-(trifluoromethyl)-1,2-dihydropyridine-3-carboxamide]

IC50 [1]	IC50 [2]	SMILES
	2960 nM	CCC(NC(=O)c1ccc(C(F)(F)F)[nH]c1=O)c1ccc(Cl)cc1 (stereo not shown) [Compound 22A, N-(1-(4-chlorophenyl)propyl)-2-oxo-6-(trifluoromethyl)-1,2-dihydropyridine-3-carboxamide]
	4240 nM	O=C(NC(c1ccc(O)cc1)c1ccc(O)cc1)c1ccc(C(F)(F)F)[nH]c1=O [Compound 23, N-(bis(4-hydroxyphenyl)methyl)-2-oxo-6-(trifluoromethyl)-1,2-dihydropyridine-3-carboxamide]
	990 nM	O=C(NC(c1ccc(CC(F)(F)F)cc1)c1ccc(CC(F)(F)F)cc1)c1ccc(C(F)(F)F)[nH]c1=O [Compound 23A, N-(bis(4-(2,2,2-trifluoroethyl)phenyl)methyl)-2-oxo-6-(trifluoromethyl)-1,2-dihydropyridine-3-carboxamide]
	470 nM	C/C=C/c1ccc(C(NC(=O)c2ccc(C(F)(F)F)[nH]c2=O)c2ccccc2)cc1 (stereo not shown) [Compound 29, (E)-2-oxo-N-(phenyl(4-(prop-1-en-1-yl)phenyl)methyl)-6-(trifluoromethyl)-1,2-dihydropyridine-3-carboxamide]
	750 nM	C=C(C)c1ccc(C(NC(=O)c2ccc(C(F)(F)F)[nH]c2=O)c2ccccc2)cc1 (stereo not shown) [Compound 30, 2-oxo-N-(phenyl(4-(prop-1-en-2-yl)phenyl)methyl)-6-(trifluoromethyl)-1,2-dihydropyridine-3-carboxamide]
	460 nM	O=C(NC(c1ccccc1)c1ccc(C2=CCCC2)cc1)c1ccc(C(F)(F)F)[nH]c1=O (stereo not shown) [Compound 31, N-((4-(cyclopent-1-en-1-yl)phenyl)(phenyl)methyl)-2-oxo-6-(trifluoromethyl)-1,2-dihydropyridine-3-carboxamide]
	400 nM	O=C(NC(c1ccccc1)c1ccc(C2=CCCCC2)cc1)c1ccc(C(F)(F)F)[nH]c1=O (stereo not shown) [Compound 32, 2-oxo-N-(phenyl(2′,3′,4,5′-tetrahydro-[1,1′-biphenyl]-4-yl)methyl)-6-(trifluoromethyl)-1,2-dihydropyridine-3-carboxamide]
	820 nM	O=C(NC(c1ccccc1)c1ccc(C2=CCOCC2)cc1)c1ccc(C(F)(F)F)[nH]c1=O (stereo not shown) [Compound 33, N-((4-(3,6-dihydro-2H-pyran-4-yl)phenyl)(phenyl)methyl)-2-oxo-6-(trifluoromethyl)-1,2-dihydropyridine-3-carboxamide]
	1630 nM	O=C(NC(c1ccc(F)cc1)c1ccc(F)cc1)c1ccc(C(F)(F)F)[nH]c1=O [Compound 34, N-(bis(4-fluorophenyl)methyl)-2-oxo-6-(trifluoromethyl)-1,2-dihydropyridine-3-carboxamide]
	450 nM	O=C(NC(c1ccccc1)c1ccc(C2CCCC2)cc1)c1ccc(C(F)(F)F)[nH]c1=O (stereo not shown) [Compound 38, N-((4-cyclopentylphenyl)(phenyl)methyl)-2-oxo-6-(trifluoromethyl)-1,2-dihydropyridine-3-carboxamide]
	490 nM	O=C(NC(c1ccccc1)c1ccc(C2CCCCC2)cc1)c1ccc(C(F)(F)F)[nH]c1=O (stereo not shown) [Compound 39, N-((4-cyclohexylphenyl)(phenyl)methyl)-2-oxo-6-(trifluoromethyl)-1,2-dihydropyridine-3-carboxamide]
	1650 nM	O=C(NC1c2ccccc2CCc2ccccc21)c1ccc(C(F)(F)F)[nH]c1=O [Compound 40, N-(10,11-dihydro-5H-dibenzo[a,d][7]annulen-5-yl)-2-oxo-6-(trifluoromethyl)-1,2-dihydropyridine-3-carboxamide]
	1290 nM	CN(C)c1ccc(C(NC(=O)c2ccc(C(F)(F)F)[nH]c2=O)c2ccccc2)cc1 (stereo not shown) [Compound 41, N-((4-(dimethylamino)phenyl) (phenyl)methyl)-2-oxo-6-(trifluoromethyl)-1,2-dihydropyridine-3-carboxamide]
	1300 nM	CCc1ccc2c(c1)-c1cc(CC)ccc1C2NC(=O)c1ccc(C(F)(F)F)[nH]c1=O [Compound 42, N-(3,6-diethyl-9H-fluoren-9-yl)-2-oxo-6-(trifluoromethyl)-1,2-dihydropyridine-3-carboxamide]
	1750 nM	O=C(NC1c2ccc(O)cc2-c2cc(O)ccc21)c1ccc(C(F)(F)F)[nH]c1=O [Compound 45, N-(3,6-dihydroxy-9H-fluoren-9-yl)-2-oxo-6-(trifluoromethyl)-1,2-dihydropyridine-3-carboxamide]
	1830 nM	O=C(NC1c2ccc(OC(F)F)cc2-c2cc(OC(F)F)ccc21)c1ccc(C(F)(F)F)[nH]c1=O [Compound 47, N-(3,6-bis(difluoromethoxy)-9H-fluoren-9-yl)-2-oxo-6-(trifluoromethyl)-1,2-dihydropyridine-3-carboxamide]
	2490 nM	O=C(NC(c1ccccc1)c1ccc(N2CCOCC2)cc1)c1ccc(C(F)(F)F)[nH]c1=O (stereo not shown) [Compound 48, N-((4-morpholinophenyl)(phenyl)methyl)-2-oxo-6-(trifluoromethyl)-1,2-dihydropyridine-3-carboxamide]
	980 nM	N#Cc1ccc(C(NC(=O)c2ccc(C(F)(F)F)[nH]c2=O)c2ccc(C#N)cc2)cc1 [Compound 49, N-(bis(4-cyanophenyl)methyl)-2-oxo-6-(trifluoromethyl)-1,2-dihydropyridine-3-carboxamide]
